pIC50: −log10 of the molar value.
Target: P2X7 receptor (Homo sapiens (Human), UniProt Q99572)
Test: P2X7 FLIPR assay (BzATP-stimulated, Fluo-4 fluorescence) in stably transfected 293 HEK cells
Type: cell-based
Method: This example illustrates representative assays for use in evaluating the test compounds for antagonist activity. Compounds of the present invention were tested in vitro for their ability to act as antagonists to the P2X7 receptor.
Cells were plated to cell density of approximately 15,000 cells/well in 384-well assay plates (50 μl/well) with 1.5% low serum media (DMEM, 1.5% BCS, 1% L-glut (2 mM), 1% P/S).
Cells were plated to cell density of approximately 15,000 cells/well in 384-well assay plates (50 μl/well) with 1.5% low serum media (DMEM, 1.5% FBS, 1% L-glut (2 mM), 10 mM HEPES, 1% P/S). Cells were plated 24 hours prior to assay. Cells expressing human, rat or mouse P2X7 receptor were assayed in the following manner.
Fluo-4 NW dye mix (Molecular Probes, Inc., Eugene, Oreg., USA) was prepared in buffer (see manufacturer's instructions). Cell plates were removed from the 37° C. incubator, the media discarded and then 30 μL of dye was added to each well. Plates were placed in the 37° C., non-CO2 incubator for 30 minutes and then room temperature for 30 minutes.
Compound mixtures (A) were added to assay plates containing cells and placed at room temperature for 30 minutes, then BzATP (B) was added. Fluorescence was read using the Tetra FLIPR® (Molecular Devices, Inc., Sunnyvale, Calif., USA) and IC50 values were calculated by standard methods to determine antagonist activity.

P2X7 receptor, sequence (Q99572 whole entry): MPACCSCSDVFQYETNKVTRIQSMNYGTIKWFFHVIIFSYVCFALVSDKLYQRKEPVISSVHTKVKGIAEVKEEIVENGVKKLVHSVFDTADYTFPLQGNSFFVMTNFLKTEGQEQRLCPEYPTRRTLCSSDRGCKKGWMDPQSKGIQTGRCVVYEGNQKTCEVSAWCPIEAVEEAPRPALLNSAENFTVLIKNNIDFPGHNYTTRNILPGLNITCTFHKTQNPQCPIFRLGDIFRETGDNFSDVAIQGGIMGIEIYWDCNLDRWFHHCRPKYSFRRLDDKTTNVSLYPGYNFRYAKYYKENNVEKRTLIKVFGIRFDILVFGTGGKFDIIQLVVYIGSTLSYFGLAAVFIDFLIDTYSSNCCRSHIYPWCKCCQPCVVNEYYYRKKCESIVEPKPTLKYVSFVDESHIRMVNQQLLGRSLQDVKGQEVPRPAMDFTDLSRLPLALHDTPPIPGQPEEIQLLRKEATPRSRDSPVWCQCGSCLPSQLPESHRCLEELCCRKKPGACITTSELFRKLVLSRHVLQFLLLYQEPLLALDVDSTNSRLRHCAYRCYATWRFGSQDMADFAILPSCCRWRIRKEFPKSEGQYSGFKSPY

Row | Structure (SMILES) | pIC50
1 | COc1ccc(C(=O)NCC(c2cnc(C(F)(F)F)nc2)N2CCC(F)(F)CC2)c(Cl)c1 (single isomer, unassigned; (+)) [(+)2-chloro-N-[2-(4,4-difluoro-1-piperidyl)-2-[2-(trifluorom] [(+)2-chloro-4-methoxy-N-(2-(4,4-difluoropiperidin-1-yl)-2-(2-(trifluoromethyl)pyrimidin-5-yl)ethyl)benzamide] | 8.37
2 | O=C(NCC(c1cnc(C2CC2)nc1)N1CCC(F)(F)CC1)c1c(Cl)cccc1Cl (single isomer, unassigned; (-)) [(−)2,6-dichloro-N-[2-(2-cyclopropylpyrimidin-5-yl)-2-(4,4-di] [(−)2,6-dichloro-N-(2-(2-cyclopropylpyrimidin-5-yl)-2-(4,4-difluoropiperidin-1-yl)ethyl)benzamide] | 8.24

— patent US9593105B2, “Cyclic amines” (H. Lundbeck A/S, priority 2012, dated 2017)
